Results reported in patent US11833116B2 (TCI CO., LTD., priority 2020, dated 2023).

How the values were obtained:
[1] = test system: mouse brain neuroblastoma cells (Neuro2a); assay: Mitochondrial activity (JC-1 mitochondrial membrane potential, flow cytometry); type: cell-based; conditions: 0.25 vol %, 24 hours, control group = 100%
Source text: A medium used was a DMEM medium (Dulbecco's Modified Eagle Medium; brand: Gibco) supplemented with 10 vol % of fetal bovine serum (FBS; brand: Gibco) and 1 vol % of penicillin/streptomycin (brand: Gibco), hereinafter referred to as a cell medium. A mitochondrial activity test method used was to use a mitochondrial membrane potential detection kit (BD™ MitoScreen (JC-1) kit, model 551302) to measure the mitochondrial membrane potential and perform mitochondrial activity analysis. The mitochondrial membrane potential detection kit included a JC-1 stain (freeze-dried) and a 10×assay buffer. Before use, the 10×assay buffer was diluted 10 times with 1×PBS to form a 1×assay buffer. 130 μL of DMSO was added to the JC-1 stain (freeze-dried) to form a JC-1 stock solution. Then, the JC-1 stock solution was diluted with the 1×assay buffer to form a JC-1 working solution (JC-1 mitochondrial specific stain). The dilution ratio of the JC-1 stock solution to the 1×assay buffer was 1:100.
First, 1×10^5 mouse neuroblastoma cells (ATCC CCL-131; hereinafter referred to as Neuro2a cells) were added into a six-well cell culture plate containing 2 mL of the above cell medium per well, and cultured at 37° C. for 24 hours. […]

CCT8 gene = assay: Antiaging-related gene expression in PBMC cells (qRT-PCR): CCT8; type: cell-based, human; conditions: 0.25 vol %, 24 hours, control group = 1.00
Source text: (§1) Herein, the tested antiaging-related genes are antiaging genes including CCT5 gene (Gene ID: 22948), CCT6A gene (Gene ID: 908), CCT7 gene (Gene ID: 10574), CCT8 gene (Gene ID: 10694), PARP2 gene (Gene ID: 10038), Parkin gene (Gene ID: 5071), Atg1 gene (Gene ID: 8408), Arg8 gene (Gene ID: 11345), FOX) gene (Gene ID: 2308), SIRT1 gene (Gene ID: 23411), […] gene (Gene ID: 55191), and MRPS3 gene (Gene ID: 64969). A medium used was an X-VIVOTM 15 serum-free hematopoietic cell medium (manufacturer: Lonza; product No.: 04-[…]) supplemented with 10 vol % of fetal bovine serum (FBS; brand: Gibco) and 1 vol % of penicillin/streptomycin (brand: Gibco), hereinafter referred to as a cell medium. […] Then, by using an ABI StepOnePlusTM Real-Time PCR system (Thermo Fisher Scientific Company, USA), KAPA SYBR FAST (purchased from Sigma Company, USA, No. 38220000000) and primers of Table 1 (SEQ ID NO: 1 to SEQ ID NO: 24), a quantitative real-time reverse transcription polymerase chain reaction was performed on the cDNA of each group to observe the expression levels of antiaging-related genes in PBMC cells. […] Herein, the quantitative real-time reverse transcription polymerase chain reaction of the cDNA can indirectly quantify an mRNA expression level of a gene, and then infer the expression level of protein encoded by the gene. […]

MRPS5 gene = assay: Antiaging-related gene expression in PBMC cells (qRT-PCR): MRPS5; type: cell-based, human; conditions: 0.25 vol %, 24 hours, control group = 1.00
Source text: as §1

SIRT1 gene = assay: Antiaging-related gene expression in PBMC cells (qRT-PCR): SIRT1; type: cell-based, human; conditions: 0.25 vol %, 24 hours, control group = 1.00
Source text: as §1

FOXO gene = assay: Antiaging-related gene expression in PBMC cells (qRT-PCR): FOXO; type: cell-based, human; conditions: 0.25 vol %, 24 hours, control group = 1.00
Source text: as §1

PARP2 gene = assay: Antiaging-related gene expression in PBMC cells (qRT-PCR): PARP2; type: cell-based, human; conditions: 0.25 vol %, 24 hours, control group = 1.00
Source text: as §1

CCT5 gene = assay: Antiaging-related gene expression in PBMC cells (qRT-PCR): CCT5; type: cell-based, human; conditions: 0.25 vol %, 24 hours, control group = 1.00
Source text: as §1

CCT7 gene = assay: Antiaging-related gene expression in PBMC cells (qRT-PCR): CCT7; type: cell-based, human; conditions: 0.25 vol %, 24 hours, control group = 1.00
Source text: as §1

CCT6A gene = assay: Antiaging-related gene expression in PBMC cells (qRT-PCR): CCT6A; type: cell-based, human; conditions: 0.25 vol %, 24 hours, control group = 1.00
Source text: as §1

Parkin gene = assay: Antiaging-related gene expression in PBMC cells (qRT-PCR): Parkin; type: cell-based, human; conditions: 0.25 vol %, 24 hours, control group = 1.00
Source text: Herein, the tested antiaging-related genes are antiaging genes including CCT5 gene (Gene ID: 22948), CCT6A gene (Gene ID: 908), CCT7 gene (Gene ID: 10574), CCT8 gene (Gene ID: 10694), PARP2 gene (Gene ID: 10038), Parkin gene (Gene ID: 5071), Atg1 gene (Gene ID: 8408), Arg8 gene (Gene ID: 11345), FOX) gene (Gene ID: 2308), SIRT1 gene (Gene ID: 23411), NADSYN gene (Gene ID: 55191), and MRPS3 gene (Gene ID: 64969).
A medium used was an X-VIVO™ 15 serum-free hematopoietic cell medium (manufacturer: Lonza; product No.: 04-418Q) supplemented with 10 vol % of fetal bovine serum (FBS; brand: Gibco) and 1 vol % of penicillin/streptomycin (brand: Gibco), hereinafter referred to as a cell medium. […]
PBMC cells were collected from each group, and RNA of each group was extracted with an RNA extraction reagent kit (purchased from Geneaid, Taiwan, China, Lot No. FC24015-G). […] Then, by using an ABI StepOnePlus™ Real-Time PCR system (Thermo Fisher Scientific Company, USA), KAPA SYBR FAST (purchased from Sigma Company, USA, No. 38220000000) and primers of Table 1 (SEQ ID NO: 1 to SEQ ID NO: 24), a quantitative real-time reverse transcription polymerase chain reaction was performed on the cDNA of each group to observe the expression levels of antiaging-related genes in PBMC cells. […]

Atg1 gene = assay: Antiaging-related gene expression in PBMC cells (qRT-PCR): Atg1; type: cell-based, human; conditions: 0.25 vol %, 24 hours, control group = 1.00
Source text: as §1

[2] = test system: mouse brain neuroblastoma cells (Neuro2a); assay: Inhibition of ROS generation (hydrogen peroxide treatment), DCFH-DA flow cytometry; type: cell-based
Description: A medium used was a DMEM medium (Dulbecco's Modified Eagle Medium; brand: Gibco) supplemented with 10 vol % of fetal bovine serum (FBS; brand: Gibco) and 1 vol % of penicillin/streptomycin (brand: Gibco), hereinafter referred to as a cell medium. A DCFH-DA solution used was a reaction solution prepared by dissolving 2,7-dichloro-dihydro-fluorescein diacetate (DCFH-DA, product code SI-D6883, purchased from Sigma) in dimethyl sulfoxide (DMSO, purchased from Sigma, product code SI-D6883-50MG). […]
Flow cytometry (manufacturer: Beckman; Catalog No. 660519) was used to detect a fluorescence signal of DCFH-DA in the cell solutions to be assayed in each group. The excitation wavelength of fluorescence detection used was 450 nm to 490 nm, and the emission wavelength was 510 nm to 550 nm. Since DCFH-DA will first be hydrolyzed to DCFH (dichloro-dihydro-fluorescein) after entering the Neuro2a cells, and then oxidized by reactive oxygen species (ROS) into DCF (dichloro-fluorescein) that emits green fluorescence, the fluorescence intensity of the Neuro2a cells treated with the DCFH-DA can reflect the content of reactive oxygen species (ROS) in the Neuro2a cells, and from this, the ratio of the number of cells with highly expressed reactive oxygen species (ROS) in the Neuro2a cells to the number of original cells can be known.

Atg8 gene = assay: Antiaging-related gene expression in PBMC cells (qRT-PCR): Atg8; type: cell-based, human; conditions: 0.25 vol %, 24 hours, control group = 1.00
Source text: as §1

NADSYN gene = assay: Antiaging-related gene expression in PBMC cells (qRT-PCR): NADSYN; type: cell-based, human; conditions: 0.25 vol %, 24 hours, control group = 1.00
Source text: as §1

Structure (SMILES): NC(=O)c1ccc[n+]([C@@H]2O[C@H](COP(=O)([O-])O)[C@@H](O)[C@H]2O)c1 [nicotinamide mononucleotide]
- relative JC-1 accumulation [1]: 42.93%
- relative expression of the CCT8 gene (CCT8 gene): 1.72
- relative expression of the MRPS5 gene (MRPS5 gene): 0.80
- relative expression of the SIRT1 gene (SIRT1 gene): 4.30
- relative expression of the FOXO gene (FOXO gene): 0.79
- relative expression of the PARP2 gene (PARP2 gene): 0.67
- relative expression of the CCT5 gene (CCT5 gene): 1.55
- relative expression of the CCT7 gene (CCT7 gene): 1.0672
- relative expression of the CCT6A gene (CCT6A gene): 1.62
- relative expression of the Parkin gene (Parkin gene): 1.61
- relative expression of the Atg1 gene (Atg1 gene): 1.25
- relative ROS production ([2]; 24 h with 0.25 vol % yeast powder or 10 μL of 200 mM synthetic NMN, then hydrogen peroxide 1 hour, blank group = 100%, H2O2 control group 487.6%): 452.5%
- decrease in relative ROS production versus H2O2 control (percentage points, blank = 100%) ([2]; hydrogen peroxide, versus control group 487.6%): 35.1%
- relative expression of the Atg8 gene (Atg8 gene): 1.02
- relative expression of the NADSYN gene (NADSYN gene): 5.84
